Where two headings read alike, the source gives them in different places.
Legend:
[1] = molecular target: T1, PI3Kβ (Homo sapiens, UniProt P42338); assay: Enzyme binding assay (KINOMEscan, DiscoveRx)
T1 construct: purchased DiscoveRx Corporation, San Diego (contract service, KINOMEscan)
Method: (§1) Enzyme Binding Assays (KINOMEscan®)
Kinase enzyme binding affinities of compounds disclosed herein were determined using the KINOMEscan technology performed by DiscoveRx Corporation, San Diego, Calif., USA (www.kinomescan.com). Table A reports the obtained Kd values (nM), with the Kd being the inhibitor binding constant: […]

[2] = molecular target: T2, kinase enzymes (Homo sapiens, UniProt P42336); assay: Enzyme binding assay (KINOMEscan, DiscoveRx), further kinases of Table A; settings: PIK3Cα_h
T2 construct: purchased DiscoveRx Corporation, San Diego (contract service, KINOMEscan)
Method: as §1
(§2) Kinase enzyme binding affinities of compounds disclosed herein were determined using the KINOMEscan technology performed by DiscoveRx Corporation, San Diego, Calif., USA (www.kinomescan.com).

[3] = molecular target: T3, kinase enzymes (Homo sapiens, UniProt P42345); assay: as above; settings: MTOR_h
T3 construct: purchased DiscoveRx Corporation, San Diego (contract service, KINOMEscan)
Method: as §1, §2

[4] = molecular target: T4, kinase enzymes (Homo sapiens, UniProt P48736); assay: as above; settings: PIK3Cγ_h
T4 construct: purchased DiscoveRx Corporation, San Diego (contract service, KINOMEscan)
Method: as §1, §2

[5] = test system: Akt phosphorylated at Ser473 in PC-3 cells; assay: Cellular assay: phosphorylation of Akt at Ser473 in PC-3 cells (MSD ELISA); format: cell-based; settings: PC-3 cells, 60 min compound incubation, MSD ELISA, read-out: IC50 pAkt_S473
Method: (§3) Cellular activity of PI3KP inhibitors was determined by quantifying the phosphorylation of Akt in PC-3 cells. Akt phosphorylated at Ser473 and Thr308 were measured using an enzyme-linked immunosorbent assay (ELISA; Meso Scale Discovery (MSD), Gaithersburg. Md.) and specific primary antibodies from MSD.
(§4) On day 2, compound or DMSO (0.3%) was added and cells were further incubated for 60 min at 37° C. 5% CO2 in a total volume of 100 μl of medium.
(§5) The phosphoprotein assay was executed according to vendor instructions in the Phospho-Akt (Ser473) Assay Whole Cell Lysate Kit (MSD # K15100D-3) and the Phospho-Akt (Thr308) Assay Whole Cell Lysate Kit (MSD # K151DYD-3) using the lysis, blocking and wash buffer provided.
(§6) Briefly, at the end of the cell treatment period, media were removed by aspiration and adherent cells were lysed in 50 μl ice-cold lysis buffer. MSD plates are supplied pre-coated with capture antibodies for Phospho-Akt (Ser473 and Thr308). After blocking, lysates from tissue culture plates were added and plates were washed. Then, a solution containing the detection antibody (anti-total Akt conjugated with an electrochemiluminescent compound-MSD Sulfo-tag label) was added. The signals were detected using an MSD SECTOR Imager 6000 and are proportional to the phospho-Akt titres.
(§7) Data were processed. […] From these concentration-response curves, the IC50 values were calculated. Five concentrations were used for curve fitting.

[6] = molecular target: T5, PI3Kδ (Homo sapiens, UniProt O00329); assay: Enzyme binding assay (KINOMEscan, DiscoveRx); settings: PIK3Cδ_h
T5 construct: purchased DiscoveRx Corporation, San Diego (contract service, KINOMEscan)
T5 sequence (O00329 1-1044): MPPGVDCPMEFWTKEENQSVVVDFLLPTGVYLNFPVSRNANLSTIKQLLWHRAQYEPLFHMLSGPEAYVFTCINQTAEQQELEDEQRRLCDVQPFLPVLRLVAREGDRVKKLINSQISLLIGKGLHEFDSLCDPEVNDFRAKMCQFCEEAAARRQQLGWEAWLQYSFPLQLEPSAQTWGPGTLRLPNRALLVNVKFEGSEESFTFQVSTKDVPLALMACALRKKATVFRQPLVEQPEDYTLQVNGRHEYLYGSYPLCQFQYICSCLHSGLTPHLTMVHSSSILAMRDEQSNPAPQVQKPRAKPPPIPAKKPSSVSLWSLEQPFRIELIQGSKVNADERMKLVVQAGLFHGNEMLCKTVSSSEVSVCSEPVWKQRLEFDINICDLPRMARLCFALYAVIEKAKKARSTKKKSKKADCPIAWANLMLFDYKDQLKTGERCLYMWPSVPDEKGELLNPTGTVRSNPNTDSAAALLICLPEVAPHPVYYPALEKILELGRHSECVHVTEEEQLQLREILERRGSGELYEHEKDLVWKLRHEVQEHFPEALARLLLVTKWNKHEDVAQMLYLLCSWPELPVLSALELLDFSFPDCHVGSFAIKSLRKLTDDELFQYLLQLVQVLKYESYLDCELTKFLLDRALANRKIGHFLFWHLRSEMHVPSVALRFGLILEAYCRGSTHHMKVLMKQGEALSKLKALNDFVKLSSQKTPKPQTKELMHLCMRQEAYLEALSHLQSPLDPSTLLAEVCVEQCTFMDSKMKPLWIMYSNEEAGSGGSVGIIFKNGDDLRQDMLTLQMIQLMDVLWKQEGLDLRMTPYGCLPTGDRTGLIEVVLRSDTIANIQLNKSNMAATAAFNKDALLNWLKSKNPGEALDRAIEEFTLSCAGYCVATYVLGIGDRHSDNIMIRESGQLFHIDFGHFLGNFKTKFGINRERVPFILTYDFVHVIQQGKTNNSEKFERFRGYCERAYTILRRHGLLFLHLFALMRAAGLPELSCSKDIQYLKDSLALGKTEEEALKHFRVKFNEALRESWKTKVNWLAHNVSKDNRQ
Method: as §1, §2

[7] = test system: Akt phosphorylated at Thr308 in PC-3 cells; assay: Cellular assay: phosphorylation of Akt at Thr308 in PC-3 cells (MSD ELISA); format: cell-based; settings: PC-3 cells, 60 min compound incubation, MSD ELISA, read-out: IC50 pAkt_Thr308
Method: as §3, §4, §5, §6, §7

[8] = PIK3Cβ_h, read-out: Kd PIK3Cβ_h

T2 sequence (P42336 whole entry): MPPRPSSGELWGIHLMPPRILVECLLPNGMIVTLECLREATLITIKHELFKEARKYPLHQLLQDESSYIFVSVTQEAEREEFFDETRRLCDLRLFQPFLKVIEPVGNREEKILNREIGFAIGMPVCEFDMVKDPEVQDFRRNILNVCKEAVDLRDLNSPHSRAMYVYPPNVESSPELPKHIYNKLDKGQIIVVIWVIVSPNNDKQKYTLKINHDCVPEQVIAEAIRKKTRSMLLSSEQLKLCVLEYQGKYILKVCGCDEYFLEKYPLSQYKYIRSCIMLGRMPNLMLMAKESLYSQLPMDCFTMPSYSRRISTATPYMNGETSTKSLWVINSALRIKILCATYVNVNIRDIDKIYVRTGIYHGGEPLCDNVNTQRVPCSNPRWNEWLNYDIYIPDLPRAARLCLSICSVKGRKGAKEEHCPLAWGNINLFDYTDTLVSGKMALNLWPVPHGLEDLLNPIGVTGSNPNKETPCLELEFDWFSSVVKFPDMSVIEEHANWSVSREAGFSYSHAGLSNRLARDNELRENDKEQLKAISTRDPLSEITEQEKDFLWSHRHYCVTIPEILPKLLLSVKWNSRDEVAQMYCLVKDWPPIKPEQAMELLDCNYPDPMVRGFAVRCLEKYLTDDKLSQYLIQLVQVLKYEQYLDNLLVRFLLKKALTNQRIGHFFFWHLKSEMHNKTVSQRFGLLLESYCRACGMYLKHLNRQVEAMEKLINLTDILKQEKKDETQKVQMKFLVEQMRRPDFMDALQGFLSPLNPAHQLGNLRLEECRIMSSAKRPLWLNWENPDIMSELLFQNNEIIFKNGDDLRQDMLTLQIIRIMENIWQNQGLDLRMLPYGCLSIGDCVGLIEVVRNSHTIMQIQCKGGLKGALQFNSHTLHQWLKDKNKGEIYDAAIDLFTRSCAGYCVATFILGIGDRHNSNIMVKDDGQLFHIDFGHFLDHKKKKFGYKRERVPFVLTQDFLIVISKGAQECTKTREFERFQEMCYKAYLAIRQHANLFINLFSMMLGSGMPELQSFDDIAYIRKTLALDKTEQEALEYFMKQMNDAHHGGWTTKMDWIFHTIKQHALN
T4 sequence (P48736 whole entry): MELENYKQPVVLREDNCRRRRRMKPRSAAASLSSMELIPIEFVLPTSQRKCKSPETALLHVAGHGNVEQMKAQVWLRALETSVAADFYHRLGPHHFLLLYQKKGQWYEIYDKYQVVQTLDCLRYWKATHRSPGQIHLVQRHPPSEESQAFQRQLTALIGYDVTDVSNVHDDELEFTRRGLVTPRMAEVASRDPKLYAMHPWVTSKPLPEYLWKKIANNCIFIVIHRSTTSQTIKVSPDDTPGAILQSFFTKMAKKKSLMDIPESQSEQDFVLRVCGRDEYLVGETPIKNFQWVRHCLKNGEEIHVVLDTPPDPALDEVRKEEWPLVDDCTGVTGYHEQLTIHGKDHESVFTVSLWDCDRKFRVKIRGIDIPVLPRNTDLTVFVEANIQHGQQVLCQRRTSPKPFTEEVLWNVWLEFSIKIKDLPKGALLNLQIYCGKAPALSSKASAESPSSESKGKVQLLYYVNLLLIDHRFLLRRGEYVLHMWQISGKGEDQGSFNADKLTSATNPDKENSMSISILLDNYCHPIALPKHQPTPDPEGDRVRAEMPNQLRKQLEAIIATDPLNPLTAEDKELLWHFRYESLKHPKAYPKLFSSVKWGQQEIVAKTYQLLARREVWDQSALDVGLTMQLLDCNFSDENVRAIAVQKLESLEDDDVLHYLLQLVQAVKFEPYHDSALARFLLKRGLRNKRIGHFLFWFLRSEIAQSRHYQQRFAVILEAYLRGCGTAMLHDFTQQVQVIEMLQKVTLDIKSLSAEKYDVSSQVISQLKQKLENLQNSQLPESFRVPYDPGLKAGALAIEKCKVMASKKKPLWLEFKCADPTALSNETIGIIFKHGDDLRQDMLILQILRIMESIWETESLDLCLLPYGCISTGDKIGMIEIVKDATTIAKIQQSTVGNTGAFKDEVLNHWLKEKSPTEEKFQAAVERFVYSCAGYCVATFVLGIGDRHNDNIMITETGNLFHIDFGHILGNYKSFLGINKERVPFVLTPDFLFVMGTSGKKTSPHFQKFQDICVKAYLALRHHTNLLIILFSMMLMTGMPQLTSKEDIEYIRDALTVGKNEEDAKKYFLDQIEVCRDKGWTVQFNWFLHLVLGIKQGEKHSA
T1 sequence (P42338 whole entry): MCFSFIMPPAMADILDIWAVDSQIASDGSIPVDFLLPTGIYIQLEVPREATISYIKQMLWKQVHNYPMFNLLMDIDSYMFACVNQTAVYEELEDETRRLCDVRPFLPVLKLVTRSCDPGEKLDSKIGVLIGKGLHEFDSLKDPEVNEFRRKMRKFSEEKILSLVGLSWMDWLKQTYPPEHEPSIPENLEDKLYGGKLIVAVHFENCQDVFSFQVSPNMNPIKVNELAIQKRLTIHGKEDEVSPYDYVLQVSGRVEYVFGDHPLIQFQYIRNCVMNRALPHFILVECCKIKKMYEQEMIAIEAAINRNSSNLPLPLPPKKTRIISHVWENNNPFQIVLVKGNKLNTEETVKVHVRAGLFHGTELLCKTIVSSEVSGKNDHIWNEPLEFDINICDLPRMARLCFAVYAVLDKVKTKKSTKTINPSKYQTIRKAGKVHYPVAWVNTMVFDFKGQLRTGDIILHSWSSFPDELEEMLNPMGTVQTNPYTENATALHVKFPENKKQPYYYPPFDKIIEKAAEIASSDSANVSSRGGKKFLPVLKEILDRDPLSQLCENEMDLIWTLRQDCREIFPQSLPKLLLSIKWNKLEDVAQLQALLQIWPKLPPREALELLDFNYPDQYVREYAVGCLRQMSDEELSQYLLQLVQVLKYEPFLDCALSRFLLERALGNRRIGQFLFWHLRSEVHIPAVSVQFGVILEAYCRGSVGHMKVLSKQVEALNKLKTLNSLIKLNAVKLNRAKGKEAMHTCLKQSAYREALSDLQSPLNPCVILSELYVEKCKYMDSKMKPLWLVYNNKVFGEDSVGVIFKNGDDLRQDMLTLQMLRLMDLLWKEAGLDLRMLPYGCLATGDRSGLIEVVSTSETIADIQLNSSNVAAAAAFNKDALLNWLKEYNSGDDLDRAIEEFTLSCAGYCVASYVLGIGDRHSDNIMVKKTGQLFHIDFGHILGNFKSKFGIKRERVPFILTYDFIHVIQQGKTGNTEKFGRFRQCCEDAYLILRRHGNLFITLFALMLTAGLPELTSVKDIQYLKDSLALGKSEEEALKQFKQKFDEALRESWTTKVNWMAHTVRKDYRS

Row | SMILES | Kd [1, 8] [µM] | Kd [2] [µM] | Kd [3] [µM] | Kd [4] [µM] | IC50 [5] [µM] | Kd [6] [µM] | IC50 [7] [µM] | IC50 ([7]; Homo sapiens, PC-3, 1 h) [µM] | IC50 ([5]; Homo sapiens, PC-3, 1 h) [µM] | Kd ([1]; Kd PIK3Cβ_h) [µM] | Kd ([1]; read-out: Kd PIK3Cβ_h) [µM]
1 | CC(Nc1cc(F)cc(F)c1)c1cc(C(=O)N(C)CCN(C)C)cc2ncc(N3CCOCC3)nc12 (single isomer, unassigned) [Compound 182] | 0.0003 | 0.126 | > 30.2 | 0.912 | 0.001 | 0.032 | – | – | – | – | –
2 | CC(Nc1ccc(F)c(F)c1)c1cc(C(=O)NCCO)cc2ncc(N3CCOCC3)nc12 (single isomer, unassigned) [Compound 279b] | 1.91 | 26.3 | > 30.2 | 6.46 | 0.059 | – | > 0.513 | – | – | – | –
3 | CC(C)NCCNC(=O)c1cc(C(C)Oc2ccc(F)c(F)c2)c2nc(N3CCOCC3)cnc2c1 (single isomer, unassigned) [Compound 286b] | 0.002 | 6.03 | > 30.2 | 16.2 | – | 0.355 | 0.204 | – | – | – | –
4 | CC(Nc1ccc(F)c(F)c1)c1cc(C(=O)N2CC[C@@H](O)C2)cc2ncc(N3CCOCC3)nc12 (single isomer, unassigned) [Compound 300b] | 0.537 | 24 | > 30.2 | > 30.2 | – | 23.4 | – | – | – | – | –
5 | CC(C)NCCNC(=O)c1cc(C(C)Oc2cccc(F)c2)c2nc(N3CCOCC3)cnc2c1 (single isomer, unassigned) [Compound 314b] | 0.002 | 8.91 | > 30.2 | 16.6 | 0.191 | 1 | – | – | – | – | –
6 | CN(Cc1cc(F)cc(F)c1)c1cc(C(=O)N2CCNC(C(F)(F)F)C2)cc2ncc(N3CCOCC3)nc12 (single isomer, unassigned) [Compound 319a] | 0.2 | 9.12 | > 30.2 | > 30.2 | – | 2.82 | – | – | – | – | –
7 | CC(Oc1ccc(F)c(F)c1)c1cc(C(=O)N2CC[C@H](N(C)C)C2)cc2ncc(N3CCOCC3)nc12 (single isomer, unassigned) [Compound 363b] | 1.29 | 31.6 | 27.5 | > 30.2 | – | 17 | – | – | – | – | –
8 | CN[C@H]1CCN(C(=O)c2cc(C(C)Nc3ccc(F)c(F)c3)c3nc(N4CCOCC4)cnc3c2)C1 (single isomer, unassigned) [Compound 365b] | 0.251 | 15.5 | > 30.2 | 22.9 | – | 4.17 | – | – | – | – | –
9 | CNCCN(C)C(=O)c1cc(C(C)Oc2cc(F)c(F)c(F)c2)c2nc(N3CCOCC3)cnc2c1 (single isomer, unassigned) [Compound 379b] | 1.26 | > 30.2 | > 30.2 | > 30.2 | – | > 30.2 | – | – | – | – | –
10 | CC(Nc1cc(F)c(F)c(F)c1)c1cc(C(=O)N2CCCN(C(C)C)CC2)cc2ncc(N3CCOCC3)nc12 (single isomer, unassigned) [Compound 388a] | 0.933 | > 30.2 | > 30.2 | > 30.2 | – | > 30.2 | – | – | – | – | –
11 | O=C(NCCO)c1cc(N2CCC2c2ccc(F)cc2)c2nc(N3CCOCC3)cnc2c1 (single isomer, unassigned) [Compound 391a] | 10.7 | > 30.2 | 17 | > 30.2 | – | > 30.2 | – | – | – | – | –
12 | O=C(NCCO)c1cc(N2CCC2c2ccc(F)cc2)c2nc(N3CCOCC3)cnc2c1 (single isomer, unassigned) [Compound 391b] | 19.5 | > 30.2 | > 30.2 | > 30.2 | – | > 30.2 | – | – | – | – | –
13 | CN(C)C(=O)c1cc([C@@H]2CCCN2c2cc(F)cc(F)c2)c2nc(N3CCOCC3)cnc2c1 [Compound 2] | 1.09 | 12.3 | – | – | – | 16.4 | – | > 0.513 | > 0.513 | – | –
14 | C[C@@H](Nc1cccc(F)c1)c1cc(C(=O)NCCO)cc2ncc(N3CCOCC3)nc12 [Compound 117] | – | – | – | – | – | – | – | 0.044 | 0.049 | – | –
15 | C[C@@H](Nc1cc(F)cc(F)c1)c1cc(C(=O)NCCN(C)C)cc2ncc(N3CCOCC3)nc12 [Compound 184a] | – | 0.806 | 21.9 | 1.48 | 0.003 | – | 0.002 | – | – | 0.0001 | –
16 | C[C@@H](Nc1cc(F)cc(F)c1)c1cc(C(=O)NCCN(C)C)cc2ncc(N3CCOCC3)nc12 [Compound 184b] | – | 0.589 | 20 | 1.1 | 0.003 | – | 0.002 | – | – | – | 0.0001
17 | C[C@@H](Nc1cc(F)cc(F)c1)c1cc(C(=O)NCCN(C)C)cc2ncc(N3CCOCC3)nc12 [Compound 184c] | – | 0.829 | 24 | 1.27 | 0.004 | – | 0.002 | – | – | – | 0.0001
18 | COC(=O)c1cc(C(C)Nc2cc(F)cc(Cl)c2)c2nc(N3CCOCC3)cnc2c1 (stereo not shown) [Compound 264] | 0.052 | – | > 30.2 | – | > 0.513 | – | – | – | – | – | –
19 | CN(Cc1cc(F)cc(F)c1)c1cc(C(=O)O)cc2ncc(N3CCOCC3)nc12 [Compound 291] | 0.407 | 0.55 | 10.2 | 0.513 | – | 2.82 | – | – | – | – | –
20 | CN[C@H]1CCN(C(=O)c2cc(C(C)Nc3cc(F)c(F)c(F)c3)c3nc(N4CCOCC4)cnc3c2)C1 (stereo partly shown) [Compound 297] | 0.0003 | 1.86 | > 30.2 | 1.95 | – | 0.11 | – | 0.02 | – | – | –
21 | CC(C)NCCNC(=O)c1cc(NCc2cc(F)cc(F)c2)c2nc(N3CCOCC3)cnc2c1 [Compound 342] | 0.009 | 3.8 | 16.6 | 26.9 | – | 1 | – | – | – | – | –
22 | Cc1ccc(F)cc1CNc1cc(C(=O)NCCO)cc2ncc(N3CCOCC3)nc12 [Compound 343] | 0.022 | 2.19 | > 10 | – | – | – | – | 0.178 | 0.389 | – | –
23 | O=C(c1cc(NCc2cc(F)cc(F)c2)c2nc(N3CCOCC3)cnc2c1)N1CCCNCC1 [Compound 351] | 0.021 | 2.51 | > 30.2 | 2.14 | – | 1.7 | – | – | – | – | –
24 | CNCCNC(=O)c1cc(C(C)Oc2ccc(Cl)c(F)c2)c2nc(N3CCOCC3)cnc2c1 (stereo not shown) [Compound 380a] | 1.05 | 9.12 | 19.1 | – | – | 7.24 | – | – | – | – | –
25 | CC(C)NCCN(C)C(=O)c1cc(N(C)Cc2cc(F)cc(F)c2)c2nc(N3CCOCC3)cnc2c1 [Compound 390] | 0.078 | 16.6 | > 30.2 | 22.4 | – | 3.24 | – | – | – | – | –
